Measured values taken from patent publication US8158621B2, “Methods of treating or preventing autoimmune diseases with 2,4-pyrimidinediamine compounds” (Rigel Pharmaceuticals, Inc., priority 2002, dated 2012).

test system: Human Jurkat T-cells (clone N); assay: Jurkat T-cell activation (anti-TCR, CD69 upregulation); type: cell-based; details: not given
Summary of the method: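 Jurkat cells in RPMI + 5% FBS preincubated with compound 1 h at 37 °C, then stimulated with anti-TCR C305 at 500 ng/ml for 20 h. CD69 surface expression stained with anti-CD69-APC and read by flow cytometry; IC50 versus solvent-only control.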

Row | SMILES | IC50 [µM]
1 | O=C1COc2ccc(Nc3nc(Nc4cccc(O)c4)ncc3F)cc2N1 [Compound R908702] | 0.37
2 | CN1C(=O)COc2ccc(Nc3ncc(F)c(Nc4cccc(O)c4)n3)cc21 [Compound R908703] | 1.4
3 | CN1C=COc2cc(Nc3ncc(F)c(Nc4cccc(O)c4)n3)ccc21 [Compound R908704] | 3.04
4 | CNC(=O)COc1cccc(Nc2nc(Nc3ccc4c(c3)CCO4)ncc2F)c1 [Compound R909249] | > 10
5 | CCOC(=O)c1ncn2c1COc1c(Nc3ncc(F)c(Nc4cccc(O)c4)n3)cccc1-2 [Compound R909267] | > 10
6 | Cc1ccc(-c2ccccc2)cc1Nc1ncc(Br)c(Nc2cc(-c3ccccc3)ccc2C)n1 [Compound R925800] | > 10
7 | COC(=O)C(Nc1ncc(C#N)c(NC(C(=O)OC)c2ccccc2)n1)c1ccccc1 (centres unmarked) [Compound R925819] | > 10
8 | COC(=O)C(Nc1nc(Nc2ccc3c(c2)OCCO3)ncc1C#N)c1ccccc1 (centres unmarked) [Compound R925820] | > 10

test system: cultured human mast cells (CHMC); assay: CHMC low cell density ionomycin activation: tryptase assay; type: cell-based; details: Low Density CHMC, ionomycin activation, tryptase release; read-out: CHMC Ionomycin Tryptase IC50

Row | SMILES | IC50 [µM]
9 | CNC(=O)COc1cccc(Nc2nc(Nc3ccc4c(c3)CCO4)ncc2F)c1 [Compound R909249] | > 10
10 | Cc1ccc(-c2ccccc2)cc1Nc1ncc(Br)c(Nc2cc(-c3ccccc3)ccc2C)n1 [Compound R925800] | > 10
11 | COC(=O)C(Nc1ncc(C#N)c(NC(C(=O)OC)c2ccccc2)n1)c1ccccc1 (centres unmarked) [Compound R925819] | > 10
12 | COC(=O)C(Nc1nc(Nc2ccc3c(c2)OCCO3)ncc1C#N)c1ccccc1 (centres unmarked) [Compound R925820] | > 10

same assay, conditions: Low Density; read-out: CHMC Ionomycin Tryptase

Row | SMILES | IC50 [µM]
13 | O=C1COc2ccc(Nc3nc(Nc4cccc(O)c4)ncc3F)cc2N1 [Compound R908702] | 7.4
14 | CN1C(=O)COc2ccc(Nc3ncc(F)c(Nc4cccc(O)c4)n3)cc21 [Compound R908703] | > 10
15 | CN1C=COc2cc(Nc3ncc(F)c(Nc4cccc(O)c4)n3)ccc21 [Compound R908704] | > 10
16 | CCOC(=O)c1ncn2c1COc1c(Nc3ncc(F)c(Nc4cccc(O)c4)n3)cccc1-2 [Compound R909267] | > 10

same assay, conditions: low cell density; read-out: CHMC Ionomycin Tryptase

Row | SMILES | IC50 [µM]
17 | CNC(=O)Nc1cccc(Nc2nc(Nc3cc(C)cc(C)c3)ncc2F)n1 [Compound R927098] | > 10
18 | CNC(=O)n1ccc2ccc(Nc3nc(Nc4cc(C)cc(C)c4)ncc3F)cc21 [Compound R927099] | > 10
19 | CNC(=O)n1ccc2ccc(Nc3nc(Nc4ccc(OC)c(Cl)c4)ncc3F)cc21 [Compound R927100] | > 10
20 | Cc1cc(Nc2ncc(F)c(Nc3ccc4c(c3)OCCO4)n2)cc(C)c1Cl [Compound R927117] | > 10
21 | Cc1cc(Nc2ncc(F)c(Nc3ccc4c(c3)NC(=O)C(C)(C)O4)n2)cc(C)c1Cl [Compound R927118] | 3.49
22 | OCCCn1ncc2cc(Nc3ncc(F)c(Nc4ccc(Cl)cc4)n3)ccc21 [Compound R935383] | > 10
23 | Cn1ncc2ccc(Nc3ncc(F)c(Nc4ccc5c(c4)OCCO5)n3)cc21 [Compound R935392] | > 10
24 | COc1ccc(Nc2nc(Nc3ccc4cn[nH]c4c3)ncc2F)cc1Cl [Compound R935408] | 9.94
25 | CC1(C)Oc2ccc(Nc3ncc(F)c(Nc4ccc5[nH]ncc5c4)n3)cc2NC1=O [Compound R935438] | 23
26 | CC1(C)Oc2ccc(Nc3ncc(F)c(Nc4ccc5cn[nH]c5c4)n3)cc2NC1=O [Compound R935440] | 88
27 | Cn1cc2ccc(Nc3ncc(F)c(Nc4ccc(Cl)c(Cl)c4)n3)cc2n1 [Compound R935444] | > 10
28 | Cn1cc2ccc(Nc3ncc(F)c(Nc4ccc5c(c4)NC(=O)C(C)(C)O5)n3)cc2n1 [Compound R935445] | 11
29 | COc1ccc(Nc2nc(Nc3ccc4cn(C)nc4c3)ncc2F)cc1Cl [Compound R935446] | > 10
30 | CCOC(=O)CCn1cc2cc(Nc3ncc(F)c(Nc4ccc(Cl)c(Cl)c4)n3)ccc2n1 [Compound R935447] | 4.7
31 | CCOC(=O)CCn1cc2cc(Nc3ncc(F)c(Nc4ccc5c(c4)NC(=O)C(C)(C)O5)n3)ccc2n1 [Compound R935448] | 4.3
32 | COc1cc(Nc2nc(Nc3ccc4cnn(C)c4c3)ncc2F)ccc1F [Compound R935449] | 7.8
33 | COc1cc(Nc2nc(Nc3ccc4cn(C)nc4c3)ncc2F)ccc1F [Compound R935450] | > 10
34 | CNC(=O)CCn1cc2cc(Nc3ncc(F)c(Nc4ccc(Cl)c(Cl)c4)n3)ccc2n1 [Compound R935452] | > 10
35 | CNC(=O)CCn1cc2cc(Nc3ncc(F)c(Nc4ccc5c(c4)NC(=O)C(C)(C)O5)n3)ccc2n1 [Compound R935453] | > 10
36 | COc1ccc(Nc2nc(Nc3ccc4[nH]ncc4c3)ncc2F)cc1Cl [Compound R935459] | 4.7
37 | CCOC(=O)CCn1ncc2cc(Nc3ncc(F)c(Nc4ccc(OC)c(Cl)c4)n3)ccc21 [Compound R935460] | 15.6
38 | COc1ccc(Nc2nc(Nc3ccc4c(cnn4CCCO)c3)ncc2F)cc1Cl [Compound R935461] | 5.03

test system: cultured human mast cells (CHMC); assay: CHMC low cell density IgE activation: tryptase assay; type: cell-based; details: Low Density CHMC, anti-IgE activation, tryptase release; read-out: CHMC anti-IgE Tryptase IC50
Summary of the method: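 CHMC resuspended in pre-warmed MT buffer at 1000-1500 cells/well (donor-dependent) and preincubated 1 hr at 37° C, then stimulated with anti-IgE for 30 min at 37° C; unstimulated wells got MT alone. Supernatant tryptase activity read with tryptase substrate after 30 min at room temperature.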

Row | SMILES | IC50 [µM]
39 | CNC(=O)COc1cccc(Nc2nc(Nc3ccc4c(c3)CCO4)ncc2F)c1 [Compound R909249] | > 10
40 | Cc1ccc(-c2ccccc2)cc1Nc1ncc(Br)c(Nc2cc(-c3ccccc3)ccc2C)n1 [Compound R925800] | > 10
41 | COC(=O)C(Nc1ncc(C#N)c(NC(C(=O)OC)c2ccccc2)n1)c1ccccc1 (centres unmarked) [Compound R925819] | > 10
42 | COC(=O)C(Nc1nc(Nc2ccc3c(c2)OCCO3)ncc1C#N)c1ccccc1 (centres unmarked) [Compound R925820] | > 10

same assay, conditions: Low Density; read-out: CHMC anti-IgE Tryptase

Row | SMILES | IC50 [µM]
43 | O=C1COc2ccc(Nc3nc(Nc4cccc(O)c4)ncc3F)cc2N1 [Compound R908702] | 0.104
44 | CN1C(=O)COc2ccc(Nc3ncc(F)c(Nc4cccc(O)c4)n3)cc21 [Compound R908703] | 0.63
45 | CN1C=COc2cc(Nc3ncc(F)c(Nc4cccc(O)c4)n3)ccc21 [Compound R908704] | 0.511
46 | CCOC(=O)c1ncn2c1COc1c(Nc3ncc(F)c(Nc4cccc(O)c4)n3)cccc1-2 [Compound R909267] | 0.589

same assay, conditions: low cell density; read-out: CHMC anti-IgE Tryptase

Row | SMILES | IC50 [µM]
47 | CNC(=O)Nc1cccc(Nc2nc(Nc3cc(C)cc(C)c3)ncc2F)n1 [Compound R927098] | 1.53
48 | CNC(=O)n1ccc2ccc(Nc3nc(Nc4cc(C)cc(C)c4)ncc3F)cc21 [Compound R927099] | > 10
49 | CNC(=O)n1ccc2ccc(Nc3nc(Nc4ccc(OC)c(Cl)c4)ncc3F)cc21 [Compound R927100] | 6.2
50 | Cc1cc(Nc2ncc(F)c(Nc3ccc4c(c3)OCCO4)n2)cc(C)c1Cl [Compound R927117] | 0.614
51 | Cc1cc(Nc2ncc(F)c(Nc3ccc4c(c3)NC(=O)C(C)(C)O4)n2)cc(C)c1Cl [Compound R927118] | 0.065
52 | OCCCn1ncc2cc(Nc3ncc(F)c(Nc4ccc(Cl)cc4)n3)ccc21 [Compound R935383] | 0.146
53 | Cn1ncc2ccc(Nc3ncc(F)c(Nc4ccc5c(c4)OCCO5)n3)cc21 [Compound R935392] | 0.204
54 | COc1ccc(Nc2nc(Nc3ccc4cn[nH]c4c3)ncc2F)cc1Cl [Compound R935408] | 0.137
55 | CC1(C)Oc2ccc(Nc3ncc(F)c(Nc4ccc5[nH]ncc5c4)n3)cc2NC1=O [Compound R935438] | 0.414
56 | CC1(C)Oc2ccc(Nc3ncc(F)c(Nc4ccc5cn[nH]c5c4)n3)cc2NC1=O [Compound R935440] | 0.176
57 | Cn1cc2ccc(Nc3ncc(F)c(Nc4ccc(Cl)c(Cl)c4)n3)cc2n1 [Compound R935444] | 0.429
58 | Cn1cc2ccc(Nc3ncc(F)c(Nc4ccc5c(c4)NC(=O)C(C)(C)O5)n3)cc2n1 [Compound R935445] | 0.184
59 | COc1ccc(Nc2nc(Nc3ccc4cn(C)nc4c3)ncc2F)cc1Cl [Compound R935446] | 0.395
60 | CCOC(=O)CCn1cc2cc(Nc3ncc(F)c(Nc4ccc(Cl)c(Cl)c4)n3)ccc2n1 [Compound R935447] | 0.511
61 | CCOC(=O)CCn1cc2cc(Nc3ncc(F)c(Nc4ccc5c(c4)NC(=O)C(C)(C)O5)n3)ccc2n1 [Compound R935448] | 0.111
62 | COc1cc(Nc2nc(Nc3ccc4cnn(C)c4c3)ncc2F)ccc1F [Compound R935449] | 0.372
63 | COc1cc(Nc2nc(Nc3ccc4cn(C)nc4c3)ncc2F)ccc1F [Compound R935450] | 0.494
64 | CNC(=O)CCn1cc2cc(Nc3ncc(F)c(Nc4ccc(Cl)c(Cl)c4)n3)ccc2n1 [Compound R935452] | 0.213
65 | CNC(=O)CCn1cc2cc(Nc3ncc(F)c(Nc4ccc5c(c4)NC(=O)C(C)(C)O5)n3)ccc2n1 [Compound R935453] | 0.15
66 | COc1ccc(Nc2nc(Nc3ccc4[nH]ncc4c3)ncc2F)cc1Cl [Compound R935459] | 0.343
67 | CCOC(=O)CCn1ncc2cc(Nc3ncc(F)c(Nc4ccc(OC)c(Cl)c4)n3)ccc21 [Compound R935460] | 0.748
68 | COc1ccc(Nc2nc(Nc3ccc4c(cnn4CCCO)c3)ncc2F)cc1Cl [Compound R935461] | 0.134
